ChEMBL document CHEMBL1201862, “PubChem BioAssay data set” (2004)
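Cultured in 96-well plates, cells were exposed to test compound for 48 hours across five concentrations. Here, GI50 denotes the concentration required for 50% inhibition of growth.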 Active and inactive are the calls of the source. No stated cut-off is given here; in the data, active = GI50 up to about 1.1 µM and inactive = higher.

Assays:
Test in all cases: NCI anticancer screen, dose series, 48 h
786-0 = system: 786-0
A498 = system: A498
BT-549 = system: BT-549
EKVX = system: EKVX
HOP-62 = system: HOP-62
MDA-N = system: MDA-N
OVCAR-4 = system: OVCAR-4
OVCAR-5 = system: OVCAR-5
OVCAR-8 = system: OVCAR-8
PC-3 = system: PC-3
RPMI-8226 = system: RPMI-8226
SF-539 = system: SF-539
SK-OV-3 = system: SK-OV-3
SR = system: SR
T47D = system: T47D
TK-10 = system: TK-10
Hs-578T = system: Hs-578T
MOLT-4 = system: MOLT-4
UACC-62 = system: UACC-62

| Compound | GI50 (786-0) | GI50 (A498) | GI50 (BT-549) | GI50 (EKVX) | GI50 (HOP-62) | GI50 (MDA-N) | GI50 (OVCAR-4) | GI50 (OVCAR-5) | GI50 (OVCAR-8) | GI50 (PC-3) | GI50 (RPMI-8226) | GI50 (SF-539) | GI50 (SK-OV-3) | GI50 (SR) | GI50 (T47D) | GI50 (TK-10) | GI50 (Hs-578T) | GI50 (MOLT-4) | GI50 (UACC-62) |
| --- | --- | --- | --- | --- | --- | --- | --- | --- | --- | --- | --- | --- | --- | --- | --- | --- | --- | --- | --- |
| COc1ccc2nc3ccc(OC)cc3c(SCC3CO3)c2c1 (configuration not stated) | 11.1 µM (inactive) | 25.8 µM (inactive) | 15.8 µM (inactive) | 13.3 µM (inactive) | 44.6 µM (inactive) | 15.8 µM (inactive) | 19.5 µM (inactive) | 24.9 µM (inactive) | 11 µM (inactive) | 14.9 µM (inactive) | 22.7 µM (inactive) | 10.8 µM (inactive) | 71.3 µM (inactive) | 6.89 µM (inactive) | 16.8 µM (inactive) | 12.8 µM (inactive) |  |  |  |
| CC(=O)C1=C(C)N(c2ccccc2)C2(O)C=CC(O)=C3C(=O)c4ccccc4C(=O)C312 (configuration not stated) | 20 µM (inactive) | 23 µM (inactive) | 13.2 µM (inactive) | 18.2 µM (inactive) | 32.9 µM (inactive) |  | 20.9 µM (inactive) | 15.8 µM (inactive) | 9.18 µM (inactive) | 17.8 µM (inactive) | 3.37 µM (inactive) | 21.1 µM (inactive) | 48.4 µM (inactive) | 8.55 µM (inactive) | 8.75 µM (inactive) | 24.7 µM (inactive) | 41.7 µM (inactive) | 8.28 µM (inactive) | 15.6 µM (inactive) |
| CCOC(=O)C1=CCOc2cc(N(C)C)ccc21 | > 100 µM (inactive) | > 100 µM (inactive) | > 100 µM (inactive) | > 100 µM (inactive) | > 100 µM (inactive) | > 100 µM (inactive) |  |  | > 100 µM (inactive) | > 100 µM (inactive) | > 100 µM (inactive) | > 100 µM (inactive) | > 100 µM (inactive) | 65.9 µM (inactive) |  | > 100 µM (inactive) | > 100 µM (inactive) |  | > 100 µM (inactive) |
| COc1cc(NS(C)(=O)=O)ccc1NCc1c[nH]c2ccc3ncccc3c12 | 15.6 µM (inactive) | 23.1 µM (inactive) | 18.9 µM (inactive) | 20.2 µM (inactive) | 22.2 µM (inactive) |  | 20.7 µM (inactive) | 20.9 µM (inactive) | 25 µM (inactive) | 19.4 µM (inactive) | 11.3 µM (inactive) | 19.3 µM (inactive) | 16.5 µM (inactive) | 2.75 µM (inactive) | 10.9 µM (inactive) | 28 µM (inactive) | 19.7 µM (inactive) | 5.83 µM (inactive) | 17.3 µM (inactive) |
| C1=CN2C[n+]3cccc(OCc4ccccc4)c3N=C2C(OCc2ccccc2)=C1 | 15.3 µM (inactive) | 85.9 µM (inactive) | 0.344 µM (active) | 24.2 µM (inactive) | 17.6 µM (inactive) |  | 4.81 µM (inactive) | 52 µM (inactive) | 17.4 µM (inactive) | 26.5 µM (inactive) | 2.84 µM (inactive) | 4.25 µM (inactive) | > 100 µM (inactive) |  | 12.8 µM (inactive) | 56 µM (inactive) | 2.36 µM (inactive) |  | 11.9 µM (inactive) |
| N#CCCC(CC#N)N1CCN(C(CC#N)CCC#N)CC1 (configuration not stated) | > 100 µM (inactive) |  | > 100 µM (inactive) | > 100 µM (inactive) | > 100 µM (inactive) | > 100 µM (inactive) | > 100 µM (inactive) | > 100 µM (inactive) | > 100 µM (inactive) | > 100 µM (inactive) | > 100 µM (inactive) | > 100 µM (inactive) | > 100 µM (inactive) | > 100 µM (inactive) |  | > 100 µM (inactive) |  | > 100 µM (inactive) | > 100 µM (inactive) |
| Clc1ccc(Cn2cc(/C=N/n3cnnc3)c3ccccc32)cc1 | 57.9 µM (inactive) | 1.49 µM (inactive) | 29.3 µM (inactive) | 20.6 µM (inactive) | 74.3 µM (inactive) |  | 33.5 µM (inactive) | 11.7 µM (inactive) | 40.4 µM (inactive) | 52.1 µM (inactive) | 28.1 µM (inactive) | 40.5 µM (inactive) | 42.6 µM (inactive) | 39.9 µM (inactive) | 11.8 µM (inactive) | 4.81 µM (inactive) | 37.1 µM (inactive) | 63.8 µM (inactive) | 29 µM (inactive) |
| CC1=CC(=O)/C(=C/NC(=O)NN)C(=O)O1 | > 100 µM (inactive) |  | > 100 µM (inactive) | 34.1 µM (inactive) | > 100 µM (inactive) | > 100 µM (inactive) | > 100 µM (inactive) | > 100 µM (inactive) | > 100 µM (inactive) | > 100 µM (inactive) |  | 77.8 µM (inactive) | > 100 µM (inactive) |  |  | > 100 µM (inactive) | > 100 µM (inactive) | > 100 µM (inactive) | > 100 µM (inactive) |
